Laboratory results from publication PMC6161302, “Oral Bioavailability of Kinsenoside in Beagle Dogs Measured by LC-MS/MS: Improvement of Ex Vivo Stability of a Lactone-Containing Compound” (Pharmaceutics, 2018).
Read-outs that look alike come from different tables or passages of the source.

Experiments:
[1] = Pharmacokinetic and bioavailability study of KD in beagle dogs (intravenous and oral); assay type: in vivo, beagle dog; conditions: for Tmax / AUC(0-t): beagle; for k el: read-out: λz (converted)
Excerpt: The validated method was applied to a preclinical pharmacokinetic and bioavailability study of KD in beagle dogs following intravenous and oral administration. The study protocol (Project ID: HUST-D-201802004) was approved on 5 March 2018 by the Animal Ethics Committee in Tongji Medical College, Huazhong University of Science and Technology (Wuhan, China). Six beagle dogs (3 males and 3 females) weighing 10.0 ± 2.0 kg were purchased from Ruikesen Experimental Animal Co., Ltd. (Wuhan, China). All dogs were individually housed at a temperature of 25 °C and 50% relative humidity under a 12 h light/dark cycle. A laboratory standard diet and water were provided ad libitum. After overnight fasting with unlimited access to water, the six beagle dogs were randomly divided into two groups. One group was intravenously injected via lateral saphenous vein with 3 mg/kg KD, while the other group was given a single oral dose of 3 mg/kg KD. After a 7-day washout period, each group received the other treatment. For intravenous administration, blood samples (approximately 1 mL) were collected via cephalic vein into 3 mL K2EDTA-containing vacutainer tubes at pre-dose and at 0.083, 0.25, 0.5, 0.75, 1, 1.25, 1.5, 2, 2.5, 3, 4, and 5 h after administration. For oral administration, blood samples (approximately 1 mL) were collected at pre-dose and at 0.25, 0.5, 0.75, 1, 1.25, 1.5, 2, 2.5, 3, 4, 5, 6, and 7 h post-dose. Blood samples were maintained on wet ice and centrifuged under 4 °C at 3500 × g for 5 min to obtain plasma. Plasma samples were immediately transferred to pre-cooled plastic Eppendorf tubes and stored at −80 °C until analyzed.
The pharmacokinetic parameters were calculated using noncompartmental analysis by Phoenix WinNonlin software (Version 6.4, Pharsight Corporation, Princeton, NC, USA). The maximum plasma concentration (Cmax) and time to reach Cmax (Tmax) were obtained directly from the plasma concentration time course. The area under the plasma concentration versus time curve (AUC) from time zero to the last measured time point (AUC0–t) and from time zero to infinity (AUC0–∞) were estimated using the log-linear trapezoidal rule, while the elimination half-life (t1/2), the total body clearance (CL), and the apparent volume of distribution (Vd) were processed by Phoenix WinNonlin software. Oral bioavailability (F) was calculated using the formula F = (AUCpo/AUCiv) × (Doseiv/Dosepo).

[2] = Stability of KD in fresh dog whole blood; assay type: in vitro ADME, beagle dog
Method: (§1) The stability of KD in fresh dog whole blood and plasma was studied by decreasing pH, lowering temperature, and adding different esterase inhibitors. All experiments were performed in triplicate using three different lots of fresh dog whole blood or plasma. To decrease the pH of the matrixes, 1% formic acid (FA) or 1% AA was individually added to the fresh blank whole blood or plasma with a ratio of 1:9. Likewise, DDVP, NaF, and PMSF were separately added to fresh blank whole blood or plasma to obtain a final concentration of 50 mM. After 5 min pre-incubation, KD was spiked with pretreated whole blood or plasma to obtain final concentrations of 15, 150, and 1500 ng/mL. The whole blood mixture was maintained at room temperature or on wet ice for 2 h except for samples of time zero, which were centrifuged immediately to collect plasma, while the plasma mixture was maintained at room temperature or on wet ice for 0, 2, and 6 h. Then, the obtained plasma samples were cleaned up using the previously mentioned sample preparation procedures. The remaining percentage of KD was calculated by dividing the plasma concentration of KD under different incubation conditions by the concentration of time zero samples [13].

[3] = Stability of KD in fresh dog plasma; assay type: in vitro ADME, beagle dog
Method: as §1

[4] = Method-validation stability of kinsenoside in beagle dog plasma under various storage conditions; assay type: in vitro ADME
Method: The stability of stock solutions (2.5 mg/mL for KD and 1 mg/mL for IS) and working solutions (125 and 50,000 ng/mL for KD and 500 ng/mL for IS) was evaluated at room temperature for 6 h and at −80 °C for 31 days. The matrix stability was evaluated from three replicates of each QC sample stored in different conditions using freshly prepared calibration standards. The QC samples were analyzed after storage on wet ice for 2 h (short-term stability) and at −80 °C for 21 days (long-term stability). The freeze–thaw stability was determined after freezing at −80 °C and thawing on wet ice for three cycles. To evaluate the post-preparative stability, QC samples were analyzed after being held in the autosampler for 24 h at 4 °C. The samples for stability evaluation were considered stable if the deviation was within ±15% of the nominal concentration.

liver microsomal enzyme = test system: liver microsomal enzyme; parameters: method as in doi:10.5478/MSL.2015.6.2.48; conditions: cited from earlier work
[5] = parameters: method as in PMID 26686829; conditions: cited from earlier work
[6] = both sexes, dog, plasma, beagle dogs, intravenous, 3 mg/kg
[7] = both sexes, dog, plasma, beagle dogs, oral, 3 mg/kg
[8] = plasma samples after three freeze–thaw cycles, nominal 15 ng/mL
[9] = plasma samples after three freeze–thaw cycles, nominal 150 ng/mL
[10] = plasma samples after three freeze–thaw cycles, nominal 1500 ng/mL
[11] = plasma samples on wet ice for 2 h, nominal 15 ng/mL
[12] = plasma samples on wet ice for 2 h, nominal 150 ng/mL
[13] = plasma samples on wet ice for 2 h, nominal 1500 ng/mL
[14] = plasma samples stored at −80 °C for 21 days, nominal 15 ng/mL
[15] = plasma samples stored at −80 °C for 21 days, nominal 150 ng/mL
[16] = plasma samples stored at −80 °C for 21 days, nominal 1500 ng/mL
[17] = post-preparative samples stored at 4 °C for 24 h, nominal 15 ng/mL
[18] = post-preparative samples stored at 4 °C for 24 h, nominal 150 ng/mL
[19] = post-preparative samples stored at 4 °C for 24 h, nominal 1500 ng/mL

Which results are given for `O=C1C[C@@H](O[C@@H]2O[C@H](CO)[C@@H](O)[C@H](O)[C@H]2O)CO1` [kinsenoside, Kinsenoside]?
Tmax ([1]; both sexes, dog, plasma, iv, 3 mg/kg, beagle dogs): 5 min; AUC(0-t) ([1]; both sexes, dog, plasma, iv, 3 mg/kg, beagle dogs, intravenous, 3 mg/kg, read-out: AUC0–t): 6820 ± 295 ng·h/mL; AUC(0-t) ([1]; both sexes, dog, plasma, iv, 3 mg/kg, beagle dogs, intravenous, 3 mg/kg, read-out: mean AUC0-t (converted)): 114 ng·h/mL; Tmax ([1]; both sexes, dog, plasma, po, 3 mg/kg, beagle dogs): ~62.4 min; AUC(0-t) ([1]; both sexes, dog, plasma, po, 3 mg/kg, beagle dogs, oral, 3 mg/kg, read-out: AUC0–t): 1880 ± 17.6 ng·h/mL; AUC(0-t) ([1]; both sexes, dog, plasma, po, 3 mg/kg, beagle dogs, oral, 3 mg/kg, read-out: mean AUC0-t (converted)): 31.3 ng·h/mL; AUC(0-inf) [1, 6]: 6830 ± 295 ng·h/mL; Cmax [1, 6]: 11400 ng/mL; Vd [1, 6]: 0.3 ± 0.0171 L/kg; clearance [1, 6]: 7.33 mL/min/kg; half-life [1, 6]: 28.2 ± 0.78 min; k el [1, 6]: 0.000408 s⁻¹; bioavailability ([1]; both sexes, dog, plasma, beagle dogs, oral 3 mg/kg vs intravenous 3 mg/kg, read-out: Bioavailability (absolute oral)): 27.6%; AUC(0-inf) [1, 7]: 1910 ± 42.5 ng·h/mL; Cmax [1, 7]: 965 ± 59.7 ng/mL; half-life [1, 7]: 54.9 ± 5.64 min; k el [1, 7]: 0.000212 s⁻¹; bioavailability of KD relative to the majority of extensively researched isoflavone glycosides ([1]; comparison with literature values): at least 4 fold; KD remaining ([2]; 2 h incubation at room temperature): 60%; KD remaining ([2]; 2 h incubation on wet ice, three concentration levels (15, 150, 1500 ng/mL)): around 90%; KD remaining ([3]; dog plasma, 2 h incubation on wet ice): more than 90%; percentage remaining of KD ([3]; neutral and acidified dog plasma, 6 h incubation on wet ice): around 85%; Accuracy (stability, % of nominal) [4, 8]: 89.53%; Calculated Conc. [4, 8]: 13.43 ± 0.46 ng/mL; Accuracy (stability, % of nominal) [4, 9]: 90.89%; Calculated Conc. [4, 9]: 136.33 ± 4.50 ng/mL; Accuracy (stability, % of nominal) [4, 10]: 92.44%; Calculated Conc. [4, 10]: 1386.67 ± 24.94 ng/mL; Accuracy (stability, % of nominal) [4, 11]: 95.11%; Calculated Conc. [4, 11]: 14.27 ± 0.74 ng/mL; Accuracy (stability, % of nominal) [4, 12]: 93.87%; Calculated Conc. [4, 12]: 140.80 ± 2.98 ng/mL; Accuracy (stability, % of nominal) [4, 13]: 91.61%; Calculated Conc. [4, 13]: 1374.13 ± 24.63 ng/mL; Accuracy (stability, % of nominal) [4, 14]: 90.89%; Calculated Conc. [4, 14]: 13.63 ± 0.36 ng/mL; Accuracy (stability, % of nominal) [4, 15]: 91.78%; Calculated Conc. [4, 15]: 137.67 ± 2.62 ng/mL; Accuracy (stability, % of nominal) [4, 16]: 93.78%; Calculated Conc. [4, 16]: 1406.67 ± 26.25 ng/mL; Accuracy (stability, % of nominal) [4, 17]: 89.47%; Calculated Conc. [4, 17]: 13.42 ± 0.37 ng/mL; Accuracy (stability, % of nominal) [4, 18]: 91.67%; Calculated Conc. [4, 18]: 137.50 ± 4.99 ng/mL; Accuracy (stability, % of nominal) [4, 19]: 88.89%; Calculated Conc. [4, 19]: 1333.33 ± 34.60 ng/mL; stability against liver microsomal enzyme-associated metabolism (liver microsomal enzyme): stable; stability in rat plasma (ex vivo) [5]: unstable
